Measurements reported in PMC8748775, “The sphingosine 1-phosphate receptor 2/4 antagonist JTE-013 elicits off-target effects on sphingolipid metabolism” (Scientific Reports, 2022).

Columns and labels:
S1P lyase = target: T1, S1P lyase (Homo sapiens, UniProt O95470); test: fluorogenic S1P lyase assay in overexpressing lysate, […] DOP; format: cell-based
T1 construct: gene SGPL1; FLAG-tagged human S1P lyase overexpressed in HEK293T cells (whole cell lysate)
T1 sequence (O95470 1-568): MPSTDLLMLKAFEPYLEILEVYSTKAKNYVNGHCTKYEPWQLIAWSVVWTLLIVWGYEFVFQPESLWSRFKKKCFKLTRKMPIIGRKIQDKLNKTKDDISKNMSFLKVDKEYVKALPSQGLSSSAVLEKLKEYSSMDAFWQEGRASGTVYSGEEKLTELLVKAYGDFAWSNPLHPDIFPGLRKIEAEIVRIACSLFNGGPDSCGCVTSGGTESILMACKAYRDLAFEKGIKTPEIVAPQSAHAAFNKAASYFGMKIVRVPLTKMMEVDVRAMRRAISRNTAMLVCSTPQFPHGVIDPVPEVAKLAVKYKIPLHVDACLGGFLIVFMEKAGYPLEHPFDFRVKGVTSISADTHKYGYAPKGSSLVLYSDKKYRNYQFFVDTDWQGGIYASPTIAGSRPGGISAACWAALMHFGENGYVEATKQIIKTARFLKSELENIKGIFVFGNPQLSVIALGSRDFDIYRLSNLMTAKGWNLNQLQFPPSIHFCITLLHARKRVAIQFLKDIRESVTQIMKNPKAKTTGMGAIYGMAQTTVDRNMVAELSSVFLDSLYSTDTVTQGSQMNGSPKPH

[1] = target: T2, sphingosine kinase 1 (SK1) (Homo sapiens, UniProt Q9NYA1); test: in vitro radiometric [γ-32P]ATP sphingosine kinase assay with purified enzyme; format: biochemical
T2 construct: gene SPHK1; purified recombinant human SK1

[2] = target: T3, dihydroceramide desaturase 1 (Des1) (Homo sapiens, UniProt O15121); test: HPLC NBD-C6-dhCer conversion; Ki from Des1-overexpressing HEK293T lysates, competitive inhibition confirmed with purified Des1-FLAG plus CYB5; format: biochemical
T3 construct: gene DEGS1; Des1-FLAG (C-terminal FLAG), expressed in HEK293T cells; with cytochrome B5 (CYB5)

[3] = target: T4, sphingosine kinase 2 (SK2) (Homo sapiens, UniProt Q9NRA0); test: in vitro radiometric [γ-32P]ATP sphingosine kinase assay with purified enzyme; format: biochemical
T4 construct: gene SPHK2; purified recombinant human SK2
T4 sequence (Q9NRA0 1-654): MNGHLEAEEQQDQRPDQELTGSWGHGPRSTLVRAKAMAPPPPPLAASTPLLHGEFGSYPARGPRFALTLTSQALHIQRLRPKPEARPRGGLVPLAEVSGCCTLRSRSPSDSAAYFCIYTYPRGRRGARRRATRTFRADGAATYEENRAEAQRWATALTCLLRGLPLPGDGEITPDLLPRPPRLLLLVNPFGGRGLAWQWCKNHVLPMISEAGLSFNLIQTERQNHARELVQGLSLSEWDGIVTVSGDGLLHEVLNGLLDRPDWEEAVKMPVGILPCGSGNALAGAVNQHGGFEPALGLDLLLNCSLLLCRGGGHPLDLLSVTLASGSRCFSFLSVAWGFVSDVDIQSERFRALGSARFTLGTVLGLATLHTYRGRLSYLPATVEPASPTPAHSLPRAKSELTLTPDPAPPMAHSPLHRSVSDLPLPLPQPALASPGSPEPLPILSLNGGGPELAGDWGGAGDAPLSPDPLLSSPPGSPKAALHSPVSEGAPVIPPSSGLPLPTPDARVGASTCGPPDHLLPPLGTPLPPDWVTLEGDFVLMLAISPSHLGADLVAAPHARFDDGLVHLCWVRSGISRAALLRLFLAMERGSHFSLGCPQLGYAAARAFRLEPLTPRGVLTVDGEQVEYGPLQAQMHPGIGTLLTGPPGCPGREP

[4] = substrate: CCCCCCCCCCCCCCC[C@@H](O)[C@H](CO)NC(=O)CCCCCNc1ccc([N+](=O)[O-])c2nonc12; test: HPLC conversion to NBD-C6-Cer; KM from Des1-overexpressing lysates, turnover also with purified Des1-FLAG; format: biochemical, Homo sapiens; conditions: NADPH; iron ((NH4)2Fe(SO4)[…] in purified assay)

T2 sequence (Q9NYA1 whole entry): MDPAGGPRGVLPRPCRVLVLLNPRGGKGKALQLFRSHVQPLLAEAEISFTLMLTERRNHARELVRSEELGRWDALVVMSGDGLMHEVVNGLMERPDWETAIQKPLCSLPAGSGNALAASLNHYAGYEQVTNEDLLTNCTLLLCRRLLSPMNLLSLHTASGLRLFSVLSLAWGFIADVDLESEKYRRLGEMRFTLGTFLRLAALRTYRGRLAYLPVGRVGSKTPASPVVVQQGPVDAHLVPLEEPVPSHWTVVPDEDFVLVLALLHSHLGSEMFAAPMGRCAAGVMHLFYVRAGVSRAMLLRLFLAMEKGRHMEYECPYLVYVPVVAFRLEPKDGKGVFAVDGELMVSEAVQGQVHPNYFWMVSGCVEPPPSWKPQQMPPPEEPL
T3 sequence (P00167 2-134 partner, one chain of several): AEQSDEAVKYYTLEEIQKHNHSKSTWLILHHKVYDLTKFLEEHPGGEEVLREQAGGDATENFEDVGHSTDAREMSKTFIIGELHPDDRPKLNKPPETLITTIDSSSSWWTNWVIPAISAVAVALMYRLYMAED

Cc1ncc(CO)c(C)c1O [DOP, 4-deoxypyridoxine] was tested, and the “fluorogenic S1P lyase assay in overexpressing lysate, 1.25 mM DOP” value (S1P lyase) was “known S1P lyase inhibitors 4-deoxypyridoxine and FTY720 both showed inhibition of S1P lyase activity”.

Work on Cc1nn(C)c2nc(NNC(=O)Nc3c(Cl)cncc3Cl)cc(C(C)C)c12 [JTE-013] yielded an IC50 [1] of 25.1 ± 2.7 µM, a Ki [2] of 9.2 ± 0.8 µM and an IC50 [3] of 4.3 ± 0.5 µM.

B1: dihydroceramide desaturase 1 (Des1) (Homo sapiens) (protein)
chain: GSRVSREDFEWVYTDQPHADRRREILAKYPEIKSLMKPDPNLIWIIIMMVLTQLGAFYIVKDLDWKWVIFGAYAFGSCINHSMTLAIHEIAHNAAFGNCKAMWNRWFGMFANLPIGIPYSISFKRYHMDHHRYLGADGVDVDIPTDFEGWFFCTAFRKFIWVILQPLFYAFRPLFINPKPITYLEVINTVAQVTFDILIYYFLGIKSLVYMLAASLLGLGLHPISGHFIAEHYMFLKGHETYSYYGPLNLLTFNVGYHNEHHDFPNIPGKSLPLVRKIAAEYYDNLPHYNSWIKVLYDFVMDDTISPYSRMKRHQKGEMVLE
notes: Des1-FLAG (C-terminal FLAG), expressed in HEK293T cells; with cytochrome B5 (CYB5)
With B1 the Km [4] was 0.3 µM.
